Reference: patent publication US20050215614A1, “Substituted indoles and their use as hcv inhibitors” (Rigel Pharmaceuticals, Inc., priority 2003, published 2005)

Tested on: HCV replicon
Test: HCV Replicon Assay (luciferase, 5-2 Luc replicon cells)
Assay type: cell-based
Settings: 5-2 Luc replicon cells (Huh7), 24-48 hours with compound, luciferase counts
Summary of the method: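 Huh7-derived 5-2 Luc replicon cells were seeded at 5000-7500 cells/well, grown 24 h at 37° C. and 5% CO2, then exposed to serial compound concentrations for 24-48 hours.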

## Cc1ccsc1C(=O)Nc1ccc2c(c1)c(C)cn2C(=O)c1c(Cl)cccc1Cl [Compound 233]
  Activity (concentration of inhibitory activity): b (“b” indicates activity is at a concentration greater than 10 micromolar)

## Cc1cn(C(=O)c2c(Cl)cccc2Cl)c2ccc(NC(=O)c3c(F)cccc3F)cc12 [Compound 235]
  Activity (concentration of inhibitory activity): b (“b” indicates activity is at a concentration greater than 10 micromolar)

## Cc1cn(C(=O)c2c(Cl)cccc2Cl)c2ccc(NC(=O)C3CCCCC3)cc12 [Compound 236]
  Activity (concentration of inhibitory activity): b (“b” indicates activity is at a concentration greater than 10 micromolar)

## Cc1cn(C(=O)c2c(Cl)cccc2Cl)c2ccc(NC(=O)/C=C/c3ccccc3)cc12 [Compound 237]
  Activity (concentration of inhibitory activity): b (“b” indicates activity is at a concentration greater than 10 micromolar)

## Cc1c(C)n(C(=O)c2c(Cl)cccc2Cl)c2ccc(NC(=O)/C=C/c3ccccc3)cc12 [Compound 238]
  Activity (concentration of inhibitory activity): b (“b” indicates activity is at a concentration greater than 10 micromolar)

## Cc1cc2cc(NC(=O)C3CCCC3)ccc2n1C(=O)c1ccc(Cl)cc1Cl [Compound 239]
  Activity (concentration of inhibitory activity): b (“b” indicates activity is at a concentration greater than 10 micromolar)

## Cc1cc2cc(NC(=O)C3CCCC3)ccc2n1C(=O)c1cccc(OC(F)(F)F)c1 [Compound 240]
  Activity (concentration of inhibitory activity): b (“b” indicates activity is at a concentration greater than 10 micromolar)

## Cc1cc2cc(NC(=O)C(Cl)Cl)ccc2n1C(=O)c1c(Cl)cccc1Cl [Compound 241]
  Activity (concentration of inhibitory activity): b (“b” indicates activity is at a concentration greater than 10 micromolar)

## Cc1cc2cc(NC(=O)c3cccs3)ccc2n1C(=O)c1c(Cl)cccc1Cl [Compound 242]
  Activity (concentration of inhibitory activity): b (“b” indicates activity is at a concentration greater than 10 micromolar)

## Cc1cc2cc(NC(=O)c3cccc(C(F)(F)F)c3)ccc2n1C(=O)c1c(Cl)cccc1Cl [Compound 243]
  Activity (concentration of inhibitory activity): b (“b” indicates activity is at a concentration greater than 10 micromolar)

## Cc1cc2cc(NC(=O)c3cccc(F)c3)ccc2n1C(=O)c1c(Cl)cccc1Cl [Compound 244]
  Activity (concentration of inhibitory activity): b (“b” indicates activity is at a concentration greater than 10 micromolar)

## Cc1cc2cc(NC(=O)c3nc4ccccc4s3)ccc2n1C(=O)c1c(Cl)cccc1Cl [Compound 245]
  Activity (concentration of inhibitory activity): b (“b” indicates activity is at a concentration greater than 10 micromolar)

## CC(=O)N1CCC(C(=O)Nc2ccc3c(c2)cc(C)n3C(=O)c2c(Cl)cccc2Cl)CC1 [Compound 246]
  Activity (concentration of inhibitory activity): b (“b” indicates activity is at a concentration greater than 10 micromolar)

## O=C(Nc1ccc2c(ccn2C(=O)c2c(Cl)cccc2Cl)c1)C1CCCC1 [Compound 247]
  Activity (concentration of inhibitory activity): b (“b” indicates activity is at a concentration greater than 10 micromolar)

## O=C(Nc1ccc2c(ccn2C(=O)c2c(Cl)cccc2Cl)c1)C(Cl)Cl [Compound 248]
  Activity (concentration of inhibitory activity): b (“b” indicates activity is at a concentration greater than 10 micromolar)

## O=C(Nc1ccc2c(ccn2C(=O)c2c(Cl)cccc2Cl)c1)c1cccc(F)c1 [Compound 249]
  Activity (concentration of inhibitory activity): b (“b” indicates activity is at a concentration greater than 10 micromolar)

## O=C(Nc1ccc2c(ccn2C(=O)c2c(Cl)cccc2Cl)c1)c1cccc(C(F)(F)F)c1 [Compound 250]
  Activity (concentration of inhibitory activity): b (“b” indicates activity is at a concentration greater than 10 micromolar)

## O=C(Nc1ccc2c(ccn2C(=O)c2c(Cl)cccc2Cl)c1)c1cccs1 [Compound 251]
  Activity (concentration of inhibitory activity): b (“b” indicates activity is at a concentration greater than 10 micromolar)

## O=C(Nc1ccc2c(ccn2C(=O)c2c(Cl)cccc2Cl)c1)C1CCCCC1 [Compound 252]
  Activity (concentration of inhibitory activity): b (“b” indicates activity is at a concentration greater than 10 micromolar)

## O=C(Nc1ccc2c(ccn2C(=O)c2c(Cl)cccc2Cl)c1)C1CC1 [Compound 254]
  Activity (concentration of inhibitory activity): b (“b” indicates activity is at a concentration greater than 10 micromolar)

## O=C(Cc1cccnc1)Nc1ccc2c(ccn2C(=O)c2c(Cl)cccc2Cl)c1 [Compound 255]
  Activity (concentration of inhibitory activity): b (“b” indicates activity is at a concentration greater than 10 micromolar)

## Cc1cc2cc(NC(=O)c3sccc3Cl)ccc2n1C(=O)c1c(Cl)cccc1Cl [Compound 256]
  Activity (concentration of inhibitory activity): b (“b” indicates activity is at a concentration greater than 10 micromolar)

## Cc1cc2cc(NC(=O)c3cccnc3)ccc2n1C(=O)c1c(F)cccc1C(F)(F)F [Compound 257]
  Activity (concentration of inhibitory activity): b (“b” indicates activity is at a concentration greater than 10 micromolar)

## O=C(Nc1ccc2c(ccn2C(=O)c2c(Cl)cccc2Cl)c1)C1CCC1 [Compound 258]
  Activity (concentration of inhibitory activity): b (“b” indicates activity is at a concentration greater than 10 micromolar)

## Cc1cc2cc(NC(=O)C3CC3)ccc2n1C(=O)c1ccccc1 [Compound 259]
  Activity (concentration of inhibitory activity): b (“b” indicates activity is at a concentration greater than 10 micromolar)

## Cc1cc2cc(NC(=O)C3CCCCC3)ccc2n1C(=O)c1ccccc1 [Compound 260]
  Activity (concentration of inhibitory activity): b (“b” indicates activity is at a concentration greater than 10 micromolar)

## Cc1cccc(F)c1C(=O)n1c(C)cc2cc(NC(=O)C3CCCCC3)ccc21 [Compound 262]
  Activity (concentration of inhibitory activity): b (“b” indicates activity is at a concentration greater than 10 micromolar)

## Cc1cc2cc(NC(=O)CBr)ccc2n1C(=O)c1c(Cl)cccc1Cl [Compound 263]
  Activity (concentration of inhibitory activity): b (“b” indicates activity is at a concentration greater than 10 micromolar)

## Cc1cc2cc(NC(=O)C3CCCCC3)ccc2n1C(=O)c1c(Cl)cncc1Cl [Compound 265]
  Activity (concentration of inhibitory activity): b (“b” indicates activity is at a concentration greater than 10 micromolar)

## Cc1cc2cc(NC(=O)C3CCNCC3)ccc2n1C(=O)c1c(Cl)cccc1Cl [Compound 266]
  Activity (concentration of inhibitory activity): a (“a” indicates inhibitory activity at a concentration of less than 10 micromolar)

## Cc1cc2cc(NC(=O)C3CCCCC3)ccc2n1C(=O)c1c(Cl)cccc1Cl [Compound 267]
  Activity (concentration of inhibitory activity): b (“b” indicates activity is at a concentration greater than 10 micromolar)

## Cc1cc2cc(NC(=O)[C@H]3CCCN3)ccc2n1C(=O)c1c(Cl)cccc1Cl [Compound 268]
  Activity (concentration of inhibitory activity): b (“b” indicates activity is at a concentration greater than 10 micromolar)

## Cc1cc2cc(NC(=O)C3CCN(C(=O)OC(C)(C)C)CC3)ccc2n1C(=O)c1c(F)cccc1Cl [Compound 269]
  Activity (concentration of inhibitory activity): b (“b” indicates activity is at a concentration greater than 10 micromolar)

## Cc1cccc(C)c1C(=O)n1c(C)cc2cc(NC(=O)[C@H]3CCCN3)ccc21 [Compound 270]
  Activity (concentration of inhibitory activity): b (“b” indicates activity is at a concentration greater than 10 micromolar)

## Cc1cc2cc(NC(=O)[C@H]3CCCN3)ccc2n1C(=O)c1c(F)cccc1Cl [Compound 271]
  Activity (concentration of inhibitory activity): b (“b” indicates activity is at a concentration greater than 10 micromolar)

## Cc1cc2cc(NC(=O)C3CCCNC3)ccc2n1C(=O)c1c(F)cccc1Cl (centres unmarked) [Compound 272]
  Activity (concentration of inhibitory activity): b (“b” indicates activity is at a concentration greater than 10 micromolar)

## Cc1cc2cc(NC(=O)C3CCNCC3)ccc2n1C(=O)c1c(F)cccc1Cl [Compound 273]
  Activity (concentration of inhibitory activity): b (“b” indicates activity is at a concentration greater than 10 micromolar)

## CCc1ccc(C(=O)n2c(C)cc3cc(NC(=O)C4CCCC4)ccc32)cc1 [Compound 274]
  Activity (concentration of inhibitory activity): b (“b” indicates activity is at a concentration greater than 10 micromolar)

## Cc1cc2cc(NC(=O)C3CCCC3)ccc2n1C(=O)c1cc(Cl)cc(Cl)c1 [Compound 275]
  Activity (concentration of inhibitory activity): b (“b” indicates activity is at a concentration greater than 10 micromolar)

## Cc1cc2cc(NC(=O)C3CCCC3)ccc2n1C(=O)c1ccc(Cl)cc1 [Compound 276]
  Activity (concentration of inhibitory activity): b (“b” indicates activity is at a concentration greater than 10 micromolar)

## Cc1ccccc1C(=O)n1c(C)cc2cc(NC(=O)C3CCCC3)ccc21 [Compound 277]
  Activity (concentration of inhibitory activity): b (“b” indicates activity is at a concentration greater than 10 micromolar)

## CC(C)(C)c1cc2cc(NC(=O)c3ccc(C(F)(F)F)cc3)ccc2[nH]1 [Compound 278]
  Activity (concentration of inhibitory activity): a (“a” indicates inhibitory activity at a concentration of less than 10 micromolar)

## CC(C)(C)c1cc2cc(NC(=O)c3cc(Cl)nc(Cl)c3)ccc2[nH]1 [Compound 279]
  Activity (concentration of inhibitory activity): a (“a” indicates inhibitory activity at a concentration of less than 10 micromolar)

## COc1cc(C(=O)Nc2ccc3[nH]c(C(C)(C)C)cc3c2)cc(OC)c1OC [Compound 280]
  Activity (concentration of inhibitory activity): b (“b” indicates activity is at a concentration greater than 10 micromolar)

## CCC(C)(C)c1cc2cc(NC(=O)C(C)(C)C)ccc2[nH]1 [Compound 282]
  Activity (concentration of inhibitory activity): b (“b” indicates activity is at a concentration greater than 10 micromolar)

## CCC(C)(C)c1cc2cc(NC(=O)/C=C/c3ccccc3)ccc2[nH]1 [Compound 283]
  Activity (concentration of inhibitory activity): b (“b” indicates activity is at a concentration greater than 10 micromolar)

## CCC(C)(C)c1cc2cc(NC(=O)c3ccc(C(C)(C)C)cc3)ccc2[nH]1 [Compound 284]
  Activity (concentration of inhibitory activity): b (“b” indicates activity is at a concentration greater than 10 micromolar)

## CCC(C)(C)c1cc2cc(NC(=O)c3c(F)cccc3F)ccc2[nH]1 [Compound 285]
  Activity (concentration of inhibitory activity): a (“a” indicates inhibitory activity at a concentration of less than 10 micromolar)

## CCC(C)(C)c1cc2cc(NC(=O)c3cccc(C(F)(F)F)c3)ccc2[nH]1 [Compound 286]
  Activity (concentration of inhibitory activity): a (“a” indicates inhibitory activity at a concentration of less than 10 micromolar)

## CCC(C)(C)c1cc2cc(NC(=O)C(c3ccccc3)c3ccccc3)ccc2[nH]1 [Compound 287]
  Activity (concentration of inhibitory activity): b (“b” indicates activity is at a concentration greater than 10 micromolar)
